Data reported in ChEMBL document CHEMBL5584238, “Psammaplin A analogues with modified disulfide bond targeting histone deacetylases: Synthesis and biological evaluation” (Eur J Med Chem, 2024).
Active and inactive are the calls of the source. No cut-off for these calls is given here.

What was measured:
HCT-116 [1] = assay: Induction of apoptosis in human HCT-116 cells assessed as viable cells at 0.2 uM incubated for 24 hrs by Annexin V-FITC/PI staining based flow cytometry analysis ( Rvb = 92.2%); type: functional; details: read-out: Activity
Mus musculus = assay: In vivo inhibition of class 1 HDACs in BALB/c nude mouse assessed as upregulation of tumor acetylated H3 level at 5 mg/kg, ip administered every 2 days for 26 days by Western blotting analysis; type: functional, organism-based; details: time 26.0 day
HCT-116 [2] = assay: Antiproliferative activity against human HCT-116 cells incubated for 48 hrs by MTT assay; type: functional, cell-based; details: HCT-116, 48 h
HCT-116 [3] = assay: Induction of cell cycle arrest in human HCT-116 cells assessed as accumulation of cells at G2/M phase at 0.2 uM after 24 hrs by PI staining based flow cytometry analysis (reference value: 9.3%); type: functional
HCT-116 [4] = assay: Induction of apoptosis in human HCT-116 cells assessed as late apoptotic cells at 0.2 uM incubated for 24 hrs by Annexin V-FITC/PI staining based flow cytometry analysis ( Rvb = 5.32%); type: functional
HCT-116 [5] = assay: Induction of cell cycle arrest in human HCT-116 cells assessed as accumulation of cells at S phase at 0.1 uM after 24 hrs by PI staining based flow cytometry analysis (reference value: 52.8%); type: functional
HCT-116 [6] = assay: Antitumor activity against human HCT-116 cells xenografted with BALB/c nude mouse assessed as tumor growth inhibition at 5 mg/kg, ip administered every 2 days for 26 days; type: functional; details: HCT-116, 624 h, time 26 day, read-out: TGI
HCT-116 [7] = assay: Induction of cell cycle arrest in human HCT-116 cells assessed as accumulation of cells at S phase at 0.2 uM after 24 hrs by PI staining based flow cytometry analysis (reference value: 52.8%); type: functional
HCT-116 [8] = assay: Induction of apoptosis in human HCT-116 cells assessed as necrotic cells at 0.4 uM incubated for 24 hrs by Annexin V-FITC/PI staining based flow cytometry analysis ( Rvb = 0.24%); type: functional
HCT-116 [9] = assay: Induction of cell cycle arrest in human HCT-116 cells assessed as accumulation of cells at G2/M phase at 0.1 uM after 24 hrs by PI staining based flow cytometry analysis (reference value: 9.3%); type: functional
HCT-116 [10] = assay: Induction of apoptosis in human HCT-116 cells assessed as late apoptotic cells at 0.4 uM incubated for 24 hrs by Annexin V-FITC/PI staining based flow cytometry analysis ( Rvb = 5.32%); type: functional
[11] = molecular target: Class 1 histone deacetylase (Homo sapiens) (UniProt Q13547+O15379+Q92769+Q9BY41); assay: Inhibition of class 1 HDACs in human HCT-116 cells assessed as upregulation of acetylated alpha-H3 level incubated for 24 hrs by Western blotting analysis; type: cell-based; details: dose 0.5-4 µM
Class 1 histone deacetylase (Homo sapiens), sequence (O15379 whole entry, looked up): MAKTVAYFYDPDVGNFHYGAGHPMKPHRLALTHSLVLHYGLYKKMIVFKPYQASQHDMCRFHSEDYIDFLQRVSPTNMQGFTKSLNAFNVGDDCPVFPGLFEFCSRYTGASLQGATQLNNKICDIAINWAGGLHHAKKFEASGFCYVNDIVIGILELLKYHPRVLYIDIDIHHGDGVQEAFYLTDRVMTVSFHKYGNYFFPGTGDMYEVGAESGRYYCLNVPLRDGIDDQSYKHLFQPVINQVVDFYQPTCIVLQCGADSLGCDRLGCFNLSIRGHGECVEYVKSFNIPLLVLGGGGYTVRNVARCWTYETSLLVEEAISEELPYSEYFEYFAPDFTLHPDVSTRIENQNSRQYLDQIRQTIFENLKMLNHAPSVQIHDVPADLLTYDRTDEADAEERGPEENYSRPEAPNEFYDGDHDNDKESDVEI
Class 1 histone deacetylase (Homo sapiens), sequence (Q13547 whole entry, looked up): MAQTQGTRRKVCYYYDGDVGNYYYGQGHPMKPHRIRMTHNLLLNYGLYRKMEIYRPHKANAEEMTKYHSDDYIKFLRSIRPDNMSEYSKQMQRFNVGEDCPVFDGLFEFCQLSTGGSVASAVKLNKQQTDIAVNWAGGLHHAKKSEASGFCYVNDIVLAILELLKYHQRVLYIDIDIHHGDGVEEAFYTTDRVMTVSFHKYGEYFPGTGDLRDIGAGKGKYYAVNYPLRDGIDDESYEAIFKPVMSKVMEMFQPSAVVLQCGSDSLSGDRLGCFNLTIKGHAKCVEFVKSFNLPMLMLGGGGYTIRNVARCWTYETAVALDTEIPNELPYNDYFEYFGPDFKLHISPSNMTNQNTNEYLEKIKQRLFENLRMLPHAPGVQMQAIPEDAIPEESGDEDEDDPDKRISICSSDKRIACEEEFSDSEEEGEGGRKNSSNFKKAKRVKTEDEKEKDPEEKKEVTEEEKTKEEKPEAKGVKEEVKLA
Class 1 histone deacetylase (Homo sapiens), sequence (Q92769 whole entry, looked up): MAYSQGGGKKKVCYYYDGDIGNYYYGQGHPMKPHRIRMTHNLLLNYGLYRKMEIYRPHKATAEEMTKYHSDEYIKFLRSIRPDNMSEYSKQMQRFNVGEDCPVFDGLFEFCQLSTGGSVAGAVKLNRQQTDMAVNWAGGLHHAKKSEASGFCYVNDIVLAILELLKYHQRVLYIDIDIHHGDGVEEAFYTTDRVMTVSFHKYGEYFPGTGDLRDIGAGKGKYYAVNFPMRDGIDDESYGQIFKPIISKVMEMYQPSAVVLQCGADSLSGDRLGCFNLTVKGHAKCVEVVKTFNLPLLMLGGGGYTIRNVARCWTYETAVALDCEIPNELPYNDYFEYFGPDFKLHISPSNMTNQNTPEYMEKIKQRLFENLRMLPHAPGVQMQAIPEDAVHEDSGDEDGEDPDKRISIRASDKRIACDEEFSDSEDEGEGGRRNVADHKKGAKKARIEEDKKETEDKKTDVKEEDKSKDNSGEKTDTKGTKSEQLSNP
Class 1 histone deacetylase (Homo sapiens), sequence (Q9BY41 whole entry, looked up): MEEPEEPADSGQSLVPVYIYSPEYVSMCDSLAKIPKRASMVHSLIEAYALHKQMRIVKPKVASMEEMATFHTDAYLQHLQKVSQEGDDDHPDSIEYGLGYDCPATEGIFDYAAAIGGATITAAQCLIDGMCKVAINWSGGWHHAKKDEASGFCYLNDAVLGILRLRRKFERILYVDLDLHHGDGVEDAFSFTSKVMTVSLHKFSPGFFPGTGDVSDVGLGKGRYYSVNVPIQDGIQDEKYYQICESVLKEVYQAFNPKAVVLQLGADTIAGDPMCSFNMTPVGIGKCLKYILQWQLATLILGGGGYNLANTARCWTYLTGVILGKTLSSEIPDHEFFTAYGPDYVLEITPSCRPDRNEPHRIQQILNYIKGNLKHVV

HCT-116 [12] = assay: Induction of apoptosis in human HCT-116 cells assessed as early apoptotic cells at 0.4 uM incubated for 24 hrs by Annexin V-FITC/PI staining based flow cytometry analysis ( Rvb = 2.36%); type: functional
[13] = molecular target: T1, Protein deacetylase HDAC6 (Homo sapiens, UniProt Q9UBN7); assay: Inhibition of recombinant human HDAC6 using Boc-Lys(Ac)-AMC as substrate preincubated for 1 hr followed by substrate addition and measured after 2 hrs by microplate reader assay
T1 sequence (Q9UBN7 whole entry): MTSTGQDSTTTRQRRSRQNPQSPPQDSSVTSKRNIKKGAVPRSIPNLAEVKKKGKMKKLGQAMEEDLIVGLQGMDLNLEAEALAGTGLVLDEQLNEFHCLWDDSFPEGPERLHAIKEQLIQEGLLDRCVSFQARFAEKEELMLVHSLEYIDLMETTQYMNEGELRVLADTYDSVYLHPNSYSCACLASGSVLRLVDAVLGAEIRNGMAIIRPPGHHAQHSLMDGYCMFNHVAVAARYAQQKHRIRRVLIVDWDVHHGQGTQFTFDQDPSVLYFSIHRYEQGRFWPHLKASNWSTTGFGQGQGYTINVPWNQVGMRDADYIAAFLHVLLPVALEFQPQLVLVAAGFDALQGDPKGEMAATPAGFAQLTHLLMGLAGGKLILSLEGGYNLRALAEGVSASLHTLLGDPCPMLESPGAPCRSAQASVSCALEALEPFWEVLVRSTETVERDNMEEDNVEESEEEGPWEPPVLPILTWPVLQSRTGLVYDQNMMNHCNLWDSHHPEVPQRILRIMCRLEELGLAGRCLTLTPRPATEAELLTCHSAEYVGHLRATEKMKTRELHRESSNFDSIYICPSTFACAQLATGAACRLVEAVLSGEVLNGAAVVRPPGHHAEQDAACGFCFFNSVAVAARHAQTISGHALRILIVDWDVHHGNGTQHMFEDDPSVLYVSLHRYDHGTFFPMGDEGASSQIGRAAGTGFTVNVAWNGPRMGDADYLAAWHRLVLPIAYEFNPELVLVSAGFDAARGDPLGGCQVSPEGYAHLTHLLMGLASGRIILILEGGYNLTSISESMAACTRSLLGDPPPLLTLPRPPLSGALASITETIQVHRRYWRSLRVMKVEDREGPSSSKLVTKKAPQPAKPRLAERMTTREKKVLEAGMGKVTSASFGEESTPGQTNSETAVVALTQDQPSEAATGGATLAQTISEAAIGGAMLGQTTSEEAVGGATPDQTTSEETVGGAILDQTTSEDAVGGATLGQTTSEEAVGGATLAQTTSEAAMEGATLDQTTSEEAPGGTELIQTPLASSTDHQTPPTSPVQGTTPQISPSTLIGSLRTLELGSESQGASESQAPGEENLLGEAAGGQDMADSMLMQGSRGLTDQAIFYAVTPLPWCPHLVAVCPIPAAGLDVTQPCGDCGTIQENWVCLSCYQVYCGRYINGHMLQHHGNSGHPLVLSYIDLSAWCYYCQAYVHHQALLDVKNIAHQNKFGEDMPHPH

HCT-116 [14] = assay: Induction of cell cycle arrest in human HCT-116 cells assessed as accumulation of cells at G1 phase at 0.1 uM after 24 hrs by PI staining based flow cytometry analysis (reference value: 37.9%); type: functional
HCT-116 [15] = assay: Induction of apoptosis in human HCT-116 cells assessed as early apoptotic cells at 0.2 uM incubated for 24 hrs by Annexin V-FITC/PI staining based flow cytometry analysis ( Rvb = 2.36%); type: functional
HCT-116 [16] = assay: Induction of apoptosis in human HCT-116 cells assessed as necrotic cells at 0.2 uM incubated for 24 hrs by Annexin V-FITC/PI staining based flow cytometry analysis ( Rvb = 0.24%); type: functional

| Compound | viability at 0.2 µM (HCT-116 [1]) [%] | inhibition (Mus musculus) | IC50 (HCT-116 [2]) [nM] | Activity (HCT-116 [3]) [%] | Activity (HCT-116 [4]) [%] | Activity (HCT-116 [5]) [%] | inhibition in vivo at 5 mg/kg (HCT-116 [6]) [%] | Activity (HCT-116 [7]) [%] | Activity (HCT-116 [8]) [%] | Activity (HCT-116 [9]) [%] | Activity (HCT-116 [10]) [%] | inhibition [11] | Activity (HCT-116 [12]) [%] | IC50 [13] [nM] | Activity (HCT-116 [14]) [%] | Activity (HCT-116 [15]) [%] | Activity (HCT-116 [16]) [%] |
| --- | --- | --- | --- | --- | --- | --- | --- | --- | --- | --- | --- | --- | --- | --- | --- | --- | --- |
| O=C(NCC[Se][Se]CCNC(=O)/C(Cc1ccc(O)c(Br)c1)=N/O)/C(Cc1ccc(O)c(Br)c1)=N/O | 40.7 | Active | 240 | 74.56 | 12.9 | 20 | 74.6 | 10.45 | 0.082 | 47.92 | 4.94 | Dose-Dependent Effect | 67 | 60 | 32.08 | 46.1 | 0.32 |
| O=C(NCC[Se][Se]CCNC(=O)/C(Cc1ccsc1)=N/O)/C(Cc1ccsc1)=N/O | 34.5 | Active | 210 | 51.82 | 7.96 | 18.84 | 24 | 36.99 | 0.057 | 31.05 | 6.97 | Dose-Dependent Effect | 73.3 | 3100 | 50.11 | 47.1 | 0.18 |
